Results as given in patent US6790644B2, “1,3-dicarbonyl-dioxygenase—a new c-c-bond cleaving enzyme” (Biocatalytics, Inc., priority 2001, dated 2004).
Read-outs that look alike come from different tables or passages of the source.

Experiments:
[1] = molecular target: T1, 1,3-dicarbonyl-dioxygenase (Acinetobacter johnsonii, UniProt Q8GNT2); type: biochemical
[2] = molecular target: T1, 1,3-dicarbonyl-dioxygenase; experiment: Determination of enzyme-activity and stability versus pH and additives; type: physicochemical; settings: glycerol 10%, glucose 12.5%, ascorbate 1 mM, bovine serum albumin 1-20 mg/mL, dithiothreitol 1 mM, mercaptoethanol 1 mM
Protocol: Activity measurements were performed with the oxygen-electrode, with KH2PO4-buffers adjusted to various pH-values [5.0-9.0]. For stability measurements, the enzyme was diluted ten-fold and incubated at various pH-values [5.0-9.0]. The activity was measured periodically with the UV-activity-assay.

[3] = molecular target: T1, 1,3-dicarbonyl-dioxygenase; experiment: Substrate spectrum / apparent kinetic constants of purified 1,3-dicarbonyl-dioxygenase (UV assay and oxygen electrode); settings: for KO2: polarographic, estimated from rate of oxygen depletion, substrate 0.5-1 mM; for O2/Substrate: oxygen consumed per substrate, oxygen electrode
Protocol: (§1) The reaction rates were determined by using the microcomputer regression program provided with the spectrophotometer (Winspec) based on the first ten absorbance measurements made at 5-s intervals.
Substrates were dissolved at a concentration of 0.001-1 mM in KH2PO4-buffer, 50 mM, pH 7.5 using a 10 mM stock solution. Duplicate absorption-measurements of 20 different dilutions were performed at 25° C. The molar absorption coefficients were calculated by linear regression.
(§2) Oxygen consumption during the enzyme reaction was measured with an oxygen-electrode-cell (Digital Oxygen System Model 10, Rank Brothers Ltd., Cambridge, England) as described previously (Beechey, R. B. and Ribbons, D. W. (1971). ‘Methods in Microbiology’.V. 6B. Edited by J. R. Norris and D. W. Ribbons. Academic press, London. ‘Oxygen electrode measurements’ (Chapter II) pp. 29-52.). The reaction mixture contained air-saturated KH2PO4-buffer, 50 mM, pH 7.5 at 25° C. (thermostat). The oxygen-electrode was calibrated by the sodium-sulfite-method. Varying concentrations of substrate (0.01-0.3 mM) were added and the resulting decrease of oxygen was determined.
Assuming the Michaelis-Menten-equation, Vmax and Ks values were calculated by non-linear curve-fit by the program microcal-origin. KO2 was estimated by polarographic methods, adding non limiting amounts of substrate (0.5-1 mM) and graphically determining the oxygen concentration at the point of half of the maximum activity. Ks-values were similarly confirmed by polarographic methods, by stepwise addition of substrate to a final concentration of 20-150 μM.

[4] = molecular target: T2, recombinant 1,3-dicarbonyl-dioxygenase (expressed in E.coli) (Acinetobacter johnsonii, UniProt Q8GNT2); experiment: Relative activity of recombinant protein at non-limiting substrate concentrations; type: biochemical
T2 construct: made in house; host or cells: E. coli XL1 Blue, plasmid pMS470 (tac promoter, NdeI/HindIII)
T2 sequence (Q8GNT2 whole entry): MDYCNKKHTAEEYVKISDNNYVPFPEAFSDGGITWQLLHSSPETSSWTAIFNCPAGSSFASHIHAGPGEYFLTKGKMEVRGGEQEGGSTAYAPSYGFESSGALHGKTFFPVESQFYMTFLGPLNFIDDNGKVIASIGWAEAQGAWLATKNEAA
Protocol: Expression constructs were expressed in E.coli XL1 Blue (Stratagene, La Jolla, Calif.), which was grown to an OD of 1 at 30° C. on rotatory shakers in erlenmeyer flasks, then induced with IPTG (0.3 mM) and incubated for another 5 hours.
as §1, §2

[5] = molecular target: T1, 1,3-dicarbonyl-dioxygenase; experiment: Products of various substrates determined by HPLC (cleavage stoichiometry, partially purified enzyme); type: biochemical; settings: 25° C., one hour; for Substrate % (remaining): remaining substrate calculated; for Acetate % / Methylglyoxal %: oxygen saturated buffer
Text: The products of the enzyme reaction were identified directly from the reaction mixture by in situ ^1H-NMR-spectroscopy (Pokorny, D., L. Brecker, M. Pogorevc, H. Griengl, W. Steiner, T. Kappe, and D. W. Ribbons. 1999. Proton-Nuclear Magnetic Resonance Analyses of the Substrate Specificity of a β-Ketolase from Pseudomonas putida, Acetopyruvate Hydrolase. J. Bacteriol. 181: 5051-5059.). Therefore a 200 MHz narrow bore magnet (Varian Gemini™ 2000, Varian, Inc., Palo Alto, Calif.) and a 5 mm broadband probe head were used. The NMR tube was rotated at 20 rps. For a lock a D2O vortex capillary was added to avoid ^1H/D exchange reactions. The overwhelming water-signal was suppressed with a presaturation method (Guéron, M., P. Plateau and M. Decorps. 1991. Solvent signal suppression in NMR. Prog. NMR Spectrosc. 23: 135-209. Hore, J. P. 1989. Solvent suppression. p. 64. In N. J. Oppenheimer and J. T. James (eds.), Methods Enzymol. 176. Academic Press, Inc., San Diego.). The following parameters were adjusted for a ^1H-frequency of 200 MHz: presaturation-duration of 1.0 s, ^1H-pulse-angle of 90, an acquisition-time of 2.0 s and a relaxation delay of 1.5 s. 64 Scans were accumulated and after a zero filling to 32 k datapoints the free induction decay was Fourier transformed. The water signal (4.70 ppm) was used as a reference. For standard reaction analytics HPLC-measurements were performed (Hewlett-Packard, column: Aminex-HPX-87H, UV- and RI-detector, eluent Sulfuric acid 0.005 M).
The cleavage-stoichiometry of several non-symmetrical substrates was also investigated, in order to be able to determine the regiospecificity of the enzyme. This was done by conversion of the respective substrate with partially purified enzyme. Methylglyoxal and acetate formed were measured by HPLC. Remaining substrate was calculated.

[6] = molecular target: wild-type 1,3-dicarbonyl-dioxygenase (Acinetobacter johnsonii, UniProt Q8GNT2); experiment: Relative activity of wild-type enzyme at non-limiting substrate concentrations; type: biochemical
Chain of wild-type 1,3-dicarbonyl-dioxygenase (Q8GNT2 whole entry): as above
Protocol: as §1, §2

[7] = molecular target: T1, 1,3-dicarbonyl-dioxygenase; type: biochemical; remark: listed apart in the source
Protocol: The freshly prepared solutions of the respecitive inhibitors in buffer were added to partially purified enzyme, which then was incubated at room temperature.
The freshly prepared solutions of the respective inhibitors in buffer were added to partially purified enzyme, which then was incubated at room temperature. […] For reactivation, purified enzyme, which had previously been inactivated by incubation with o-phenantroline (1 mM), was incubated with Tris-buffer (20 mM, pH 7.5) containing the respective metal-salts (5 mM).

[8] = apparent, relative to acetylacetone = 1.00, purified wild-type enzyme
[9] = inhibitor 2.5 mM, 2 min incubation, 0.5 mM acetylacetone, pH 7.5
[10] = inhibitor 2.5 mM, 10 min incubation, 0.5 mM acetylacetone, pH 7.5

T1 sequence (Q8GNT2 whole entry): as above

[Cl][Cu][Cl] [CuCl2]
Relative activity [%] 2 min (reactivation) [1]: 0%
Relative activity [%] 10 min (reactivation) [1]: 0%

OCC(O)CO [glycerol]
effect of potential stabilizing agent on enzyme stability [2]: did not enhance stability

O=S(=O)([O-])[O-].[Mn+2] [MnSO4]
Relative activity [%] 2 min (reactivation) [1]: 0%
Relative activity [%] 10 min (reactivation) [1]: 0%

CC(=O)C(C)(C)C(C)=O [3,3-Dimethylpentanedione]
Vmaxrel. [3]: 0.00

CC(=O)C(C)C(C)=O [3-Methylpentandion, 3-Methylpentanedione]
acceptance as substrate (in words) [3]: quite good reaction rated
Vmaxrel. [3, 8]: 0.25
KO2 ([3]; apparent): 40 ± 8 µM
O2/Substrate [3]: 1.0
Vmax clone [4]: 0.85
Substrate % (remaining) ([5]; substrate 4 mM): 18%
Acetate % ([5]; substrate 4 mM): 82%
Vmax wild-type [6]: 0.83

CoCl2
Relative activity [%] 2 min (reactivation) [1]: 0%
Relative activity [%] 10 min (reactivation) [1]: 0%

c1cnc2c(c1)ccc1cccnc12 [o-Phenantroline]
Relative activity [%] 2 min [7]: 38%
Relative activity [%] 10 min [7]: 10%

Cc1cccc(O)c1O [methylcatechol]
acceptance as substrate (in words) [3]: does not accept

CC(=O)c1ccccc1O [(2-Hydroxyphenyl-)-ethan-1-one]
Vmaxrel. [3]: 0.00

O=C1CCCC(=O)C1 [1,3-Cyclohexanedione]
Vmaxrel. [3]: 0.00
acceptance as substrate (in words) [3]: not accepted as a substrate

[Cl][Fe]([Cl])[Cl] [FeCl3]
Relative activity [%] 2 min (reactivation) [1]: 0%
Relative activity [%] 10 min (reactivation) [1]: 0%

CCCCC(=O)CC(C)=O [2,4-Octandion, 2,4-Octanedione]
Vmaxrel. [3, 8]: 0.58
KO2 ([3]; apparent): 85 ± 15 µM
O2/Substrate [3]: 1.0
Vmax clone [4]: 0.60
Methylglyoxal/Acetate ([5]; substrate 4 mM): 0.5
Substrate % (remaining) ([5]; substrate 4 mM): 18%
Acetate % ([5]; substrate 4 mM): 55%
Methylglyoxal % ([5]; substrate 4 mM): 27%
Vmax wild-type [6]: 0.50

O=C(O)CN(CCN(CC(=O)O)CC(=O)O)CC(=O)O [EDTA]
Relative activity [%] 2 min [7]: 85%
Relative activity [%] 10 min [7]: 36%

[Cl][Ni][Cl] [NiCl2]
Relative activity [%] 2 min (reactivation) [1]: 0%
Relative activity [%] 10 min (reactivation) [1]: 0%

OO [H2O2]
Relative activity [%] 2 min [7]: 0%
Relative activity [%] 10 min [7]: 0%
inactivation of the enzyme (in words) [7]: complete inactivation

CC(=O)CC(=O)c1ccccc1 [1-Phenyl-1,3-butandion, 1-Phenyl-1,3-butanedione]
Vmaxrel. [3, 8]: 0.15
KO2 ([3]; apparent): 100 ± 15 µM
O2/Substrate [3]: 1.0
Vmax clone [4]: 0.08
Methylglyoxal/Acetate ([5]; substrate 1.6 mM): 9
Substrate % (remaining) ([5]; substrate 1.6 mM): 24%
Acetate % ([5]; substrate 1.6 mM): 8%
Methylglyoxal % ([5]; substrate 1.6 mM): 68%
Vmax wild-type [6]: 0.05

CC(=O)C1CCCCC1=O (centres unmarked) [2-Acetocyclohexanone]
acceptance as substrate (in words) [3]: quite good reaction rated
Vmaxrel. [3, 8]: 0.58
KO2 ([3]; apparent): 21 ± 5 µM
O2/Substrate [3]: 0.9
Vmax clone [4]: 0.48
Vmax wild-type [6]: 0.56

COC(C)=CC(C)=O [4-Methoxy-3-penten-2-one]
Vmaxrel. [3]: 0.00
acceptance as substrate (in words) [3]: not accepted

CCN=C=NCCCN(C)C [EDAC, 1-Ethyl-3-(3-dimethylaminopropyl)-carbodimide]
Relative activity [%] 2 min [7, 9]: 100%
Relative activity [%] 10 min [7, 10]: 95%

Oc1ccccc1O [catechol]
acceptance as substrate (in words) [3]: does not accept

CC(=O)CC(=O)C(=O)O [2,4-Dioxo-pentanoic acid]
Vmaxrel. [3]: 0.00
acceptance as substrate (in words) [3]: not cleaved

O=S(=O)([O-])[O-].[Zn+2] [ZnSO4]
Relative activity [%] 2 min (reactivation) [1]: 0%
Relative activity [%] 10 min (reactivation) [1]: 0%

O=C(O)c1cc(SSc2ccc([N+](=O)[O-])c(C(=O)O)c2)ccc1[N+](=O)[O-] [DTNB, ‘5’-Dithio-bis-(2-dinitrobenzoic acid)]
Relative activity [%] 2 min [7, 9]: 88%
Relative activity [%] 10 min [7, 10]: 85%

O=C(O)c1cc[c]([Hg][OH])cc1 [p-Hydroxymercurybenzoic acid]
Relative activity [%] 2 min ([7]; pH 7.5): 56%
Relative activity [%] 10 min ([7]; pH 7.5): 45%

CC(=O)CC(=O)C(C)(C)C [5,5-Dimethylhexan-2,4-dion, 5,5-Dimethylhexane-2,4-dione]
acceptance as substrate (in words) [3]: cleaved at significantly lower rates
Vmaxrel. [3, 8]: 0.25
KO2 ([3]; apparent): 70 ± 15 µM
O2/Substrate [3]: 0.9
Vmax clone [4]: 0.08
Methylglyoxal/Acetate ([5]; substrate 4 mM): 3.3
Substrate % (remaining) ([5]; substrate 4 mM): 9%
Acetate % ([5]; substrate 4 mM): 21%
Methylglyoxal % ([5]; substrate 4 mM): 70%
Vmax wild-type [6]: 0.05

O=C(O)CI [Iodo-acetic-acid]
Relative activity [%] 2 min ([7]; pH 7.5): 100%
Relative activity [%] 10 min ([7]; pH 7.5): 72%

CCOC(=O)OC(=O)OCC [Diethyl-pyrocarbonate]
Relative activity [%] 2 min [7, 9]: 18%
Relative activity [%] 10 min [7, 10]: 12%

CCOC(=O)C(=O)CC(C)=O [2,4-Dioxo-pentanoic-acid-ethyl-ester]
Vmaxrel. [3, 8]: 0.09
KO2 ([3]; apparent): 91 ± 15 µM
O2/Substrate [3]: 1.0
Vmax clone [4]: 0.08
Vmax wild-type [6]: 0.10

[N-]=[N+]=[N-].[Na+] [NaN3]
Relative activity [%] 2 min ([7]; pH 7.5): 54%
Relative activity [%] 10 min ([7]; pH 7.5): 38%

O=C1CCC(=O)O1 [Succinic anhydride]
Relative activity [%] 2 min [7, 9]: 62%
Relative activity [%] 10 min [7, 10]: 23%

O=S(=O)([O-])[O-].[Fe+2] [FeSO4]
Relative activity [%] 2 min (reactivation) [1]: 14%
Relative activity [%] 10 min (reactivation) [1]: 33%
restoration of enzyme-activity (in words) [1]: partially restores the enzyme-activity

CC(=O)C1CCCC1=O (centres unmarked) [2-Acetocyclopentanone]
acceptance as substrate (in words) [3]: quite good reaction rated
Vmaxrel. [3, 8]: 0.52
KO2 ([3]; apparent): 15 ± 5 µM
O2/Substrate [3]: 1.0
Vmax clone [4]: 0.43
Acetate % ([5]; substrate 4 mM): 90%
Vmax wild-type [6]: 0.31

CCCCCC(=O)CC(C)=O [2,4-Nonanedione]
Vmaxrel. [3, 8]: 0.56
KO2 ([3]; apparent): 112 ± 15 µM
O2/Substrate [3]: 1.0
Vmax clone [4]: 0.25
Methylglyoxal/Acetate ([5]; substrate 4 mM): 1.4
Substrate % (remaining) ([5]; substrate 4 mM): 17%
Acetate % ([5]; substrate 4 mM): 35%
Methylglyoxal % ([5]; substrate 4 mM): 48%
Vmax wild-type [6]: 0.30
